Where “and” joins values, the source holds several entries; their conditions need not be identical. Equal values may be shown once. Read-outs that look alike come from different tables or passages of the source. Marks after values point to notes of the source that are not given here.
What was measured:
[1] = test system: AREc32 reporter cell line (luciferase reporter under eight copies of the rat GSTA2 ARE sequence); assay: AREc32 luciferase reporter activation; format: cell-based, human; details: for EC (2-fold): Homo sapiens, read-out: AREc32 EC2X (Mean ± SD); for AREc32 Relative to CC in Same Experiment (Mean ± SD): average of ratios from three replicate experiments
[2] = test system: IFNγ-induced NO production in RAW 264.7 cells; assay: Nitric oxide suppression assay (IFNγ-induced NO production, Griess nitrite readout); format: cell-based, mouse; details: for IC50: Mus musculus
CYP3A4 = target: T1, CYP3A4 (Homo sapiens, UniProt P08684); assay: CYP3A4 (midazolam) inhibition in human liver microsomes; format: in vitro ADME; details: probe midazolam; human liver microsomes 0.1 mg/mL, midazolam substrate, 1 μM test compound, 37° C. 10 min
T1 construct: containing 0.1 mg/mL human liver microsomes; from tissue; host or cells: human liver microsomes
Experimental: Methods. Several compounds were evaluated for CYP3A4 (midazolam) inhibition in human liver microsomes at 1 μM. CYP3A4 inhibition was tested using an in vitro assay as generally described in Dierks et al. (Drug Metabolism Deposition, 29:23-29, 2001, which is incorporated by reference herein). Each sample, containing 0.1 mg/mL human liver microsomes, […] as substrate, and 1 μM of test compound, was incubated at 37° C. for 10 min. Following incubation, the metabolite 1-hydroxymidazolam was measured using HPLC-MS/MS. Peak areas corresponding to the metabolite of the substrate were recorded. The percent of control activity was then calculated by comparing the peak area obtained in the presence of the test compound to that obtained in the absence of the test compound. Subsequently, the percent inhibition was calculated by subtracting the percent control activity from 100 for each compound.

[3] = Arec32, concentration that increases the luminescence signal 2-fold above vehicle, 19 h treatment
[4] = RAW264.7, RAW 264.7 cells, 2 h pretreatment, 20 ng/mL interferon gamma 24 h, average of trials per footnote, read-out: NO IC50

T1 sequence (P08684 whole entry): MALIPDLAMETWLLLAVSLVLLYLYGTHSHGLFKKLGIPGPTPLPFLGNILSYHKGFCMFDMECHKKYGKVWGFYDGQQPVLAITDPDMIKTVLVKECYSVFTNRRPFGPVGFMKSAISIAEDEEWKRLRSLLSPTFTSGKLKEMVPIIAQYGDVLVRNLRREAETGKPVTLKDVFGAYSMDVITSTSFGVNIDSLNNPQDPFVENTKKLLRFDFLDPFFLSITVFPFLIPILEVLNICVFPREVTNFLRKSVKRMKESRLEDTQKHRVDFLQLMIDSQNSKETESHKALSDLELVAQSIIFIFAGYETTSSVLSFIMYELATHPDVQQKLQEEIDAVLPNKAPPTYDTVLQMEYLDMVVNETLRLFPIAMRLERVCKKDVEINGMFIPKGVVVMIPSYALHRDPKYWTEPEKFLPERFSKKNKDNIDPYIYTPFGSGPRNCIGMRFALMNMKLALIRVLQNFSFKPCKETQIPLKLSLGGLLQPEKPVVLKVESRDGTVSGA

| Compound | AREc32 EC2X Relative to RTA 402 (Mean ± SD) [1] | EC (2-fold) [1, 3] [µM] | NO IC50 Rel. to RTA 402 [2] | times more active (NO IC50) than 63236 relative to RTA 402 [2] | times more active (NO IC50) than 63866 relative to RTA 402 [2] | IC50 [2, 4] [nM] | inhibition at 10 min, 1 µM (CYP3A4) [%] | AREc32 Relative to CC in Same Experiment (Mean ± SD) ([1]; comparison compound CC2) | times more active (NO IC50) than CC2 relative to RTA 402 [2] | IC50 ([2]; RAW264.7, RAW 264.7 cells, interferon gamma, read-out: NO IC50) [nM] | AREc32 Relative to CC in Same Experiment (Mean ± SD) ([1]; comparison compound CC4) | times more active (NO IC50) than CC4 relative to RTA 402 [2] [times] | EC (2-fold) ([1]; Arec32, 19 h) [µM] | IC50 ([2]; RAW264.7, read-out: NO IC50) [nM] |
| --- | --- | --- | --- | --- | --- | --- | --- | --- | --- | --- | --- | --- | --- | --- |
| CC1(C)CC[C@]2(CNC(=O)C3CC3)CC[C@]3(C)[C@H](C(=O)C=C4[C@@]5(C)C=C(C#N)C(=O)C(C)(C)[C@@H]5CC[C@]43C)[C@@H]2C1 [Compound T4] | 0.3 ± 0.08^b fold | 0.0032 ± 0.00032 | 0.26 fold and 0.26 ± 0.08^h fold | more than 220 times | roughly 4.5 times | 0.51 | 30.7 | – | – | – | – | – | – | – |
| CC1(C)CC[C@]2(CN3CCC3=O)CC[C@]3(C)[C@H](C(=O)C=C4[C@@]5(C)C=C(C#N)C(=O)C(C)(C)[C@@H]5CC[C@]43C)[C@@H]2C1 [Compound T10] | 0.5 ± 0.13^c fold | 0.0052 ± 0.00249 | 0.45 ± 0.08^g fold | – | – | 1.12 ± 0.44 | 33.2 | – | – | – | – | – | – | – |
| CC1(C)CC[C@]2(CN3CCCC3=O)CC[C@]3(C)[C@H](C(=O)C=C4[C@@]5(C)C=C(C#N)C(=O)C(C)(C)[C@@H]5CC[C@]43C)[C@@H]2C1 [Compound T11] | 0.5 ± 0.08^d fold | 0.0067 ± 0.0017 | 0.58 ± 0.18^f fold | – | – | 1.08 ± 0.44 | 12.5 | – | – | – | – | – | – | – |
| CC1(C)CC[C@]2(Cn3ccnc3)CC[C@]3(C)[C@H](C(=O)C=C4[C@@]5(C)C=C(C#N)C(=O)C(C)(C)[C@@H]5CC[C@]43C)[C@@H]2C1 [Compound T17] | 1.6 ± 0.22^g fold | 0.0162 ± 0.00085 | – | – | – | – | 31.8 | 1.009 ± 0.052 | – | – | – | – | – | – |
| CC1(C)CC[C@]2(Cn3cnnn3)CC[C@]3(C)[C@H](C(=O)C=C4[C@@]5(C)C=C(C#N)C(=O)C(C)(C)[C@@H]5CC[C@]43C)[C@@H]2C1 [Compound T18] | 0.6 ± 0.05^g fold | 0.0057 ± 0.00044 | 0.76 fold and 0.76 ± 0.10^e fold | – | – | 0.92 | 46.5 | 0.356 ± 0.015 | more than twice as active | – | – | – | – | – |
| CC1(C)CC[C@]2(Cn3ccnn3)CC[C@]3(C)[C@H](C(=O)C=C4[C@@]5(C)C=C(C#N)C(=O)C(C)(C)[C@@H]5CC[C@]43C)[C@@H]2C1 [Compound T19] | – | 0.0084 ± 0.00126 | 0.93 fold and 0.93 ± 0.22^e fold | – | – | 1.11 | 33.8 | 0.522 ± 0.052 | roughly 1.6 times | 1.11 | – | – | – | – |
| CC1(C)CC[C@]2(Cn3cccn3)CC[C@]3(C)[C@H](C(=O)C=C4[C@@]5(C)C=C(C#N)C(=O)C(C)(C)[C@@H]5CC[C@]43C)[C@@H]2C1 [Compound T20] | – | 0.0153 ± 0.00084 | 1.93 ± 0.41^e fold | – | – | 3.28 ± 0.32 | 13.2 | 0.954 ± 0.101 | – | – | – | – | – | – |
| CC1(C)CC[C@]2(Cn3cncn3)CC[C@]3(C)[C@H](C(=O)C=C4[C@@]5(C)C=C(C#N)C(=O)C(C)(C)[C@@H]5CC[C@]43C)[C@@H]2C1 [Compound T21] | 1.1 ± 0.20^g fold | 0.0105 ± 0.00165 | 0.57 ± 0.07^e fold | – | – | 1.18 ± 0.21 | 18.9 | 0.649 ± 0.070 | – | – | – | – | – | – |
| CC1(C)CC[C@]2(n3cncn3)CC[C@]3(C)[C@H](C(=O)C=C4[C@@]5(C)C=C(C#N)C(=O)C(C)(C)[C@@H]5CC[C@]43C)[C@@H]2C1 [Compound T33] | 1.2 ± 0.18^f fold | 0.0136 ± 0.00131 | 1.35 ± 0.26^d fold | – | – | 5.62 ± 1.81 | 49 | – | – | – | 0.484 ± 0.060 | – | – | – |
| CC1(C)CC[C@]2(n3ccnn3)CC[C@]3(C)[C@H](C(=O)C=C4[C@@]5(C)C=C(C#N)C(=O)C(C)(C)[C@@H]5CC[C@]43C)[C@@H]2C1 [Compound T35] | 0.6 ± 0.18^f fold | 0.0071 ± 0.00073 | 0.64 fold and 0.64 ± 0.04^e fold | – | – | 1.3 | 41.7 | – | – | – | 0.262 ± 0.020 | ~4 | – | – |
| CC1(C)CC[C@]2(NNC(=O)C(F)(F)F)CC[C@]3(C)[C@H](C(=O)C=C4[C@@]5(C)C=C(C#N)C(=O)C(C)(C)[C@@H]5CC[C@]43C)[C@@H]2C1 [Compound T56] | 1.5^e fold | 0.0155 | 1.70 ± 0.32^d fold | – | – | 7.04 ± 1.91 | – | – | – | – | – | – | – | – |
| CC1(C)CC[C@]2(N3CCC(=O)N3)CC[C@]3(C)[C@H](C(=O)C=C4[C@@]5(C)C=C(C#N)C(=O)C(C)(C)[C@@H]5CC[C@]43C)[C@@H]2C1 [Compound T58] | 5.3^e fold | 0.0565 | 2.97 ± 0.65^d fold | – | – | 12.2 ± 3.32 | – | – | – | – | – | – | – | – |
| CC1(C)CC[C@]2(CNC(=O)C(C)(F)F)CC[C@]3(C)[C@H](C(=O)C=C4[C@@]5(C)C=C(C#N)C(=O)C(C)(C)[C@@H]5CC[C@]43C)[C@@H]2C1 [Compound T62] | 0.3^e fold | 0.0035 | 0.51 ± 0.18^d fold | – | – | 2.12 ± 0.85 | – | – | – | – | – | – | – | – |
| CC1(C)CC[C@]2(CNC(=O)C(F)F)CC[C@]3(C)[C@H](C(=O)C=C4[C@@]5(C)C=C(C#N)C(=O)C(C)(C)[C@@H]5CC[C@]43C)[C@@H]2C1 [Compound T63] | 0.4^e fold | 0.004 | 0.36 ± 0.11^d fold | – | – | 1.48 ± 0.54 | – | – | – | – | – | – | – | – |
| C[C@@H]1C(=O)C(C#N)=C[C@]2(C)C3=CC(=O)[C@@H]4[C@@H]5CC(C)(C)CC[C@]5(CN5CCC5=O)CC[C@@]4(C)[C@]3(C)CC[C@@H]12 [Compound T65] | 0.4^e fold | 0.0047 | 0.36 ± 0.12^e fold | – | – | 0.42 ± 0.13 | – | – | – | – | – | – | – | – |
| C[C@@H]1C(=O)C(C#N)=C[C@]2(C)C3=CC(=O)[C@@H]4[C@@H]5CC(C)(C)CC[C@]5(CN5CCCC5=O)CC[C@@]4(C)[C@]3(C)CC[C@@H]12 [Compound T66] | 0.4^e fold | 0.0046 | 0.39 ± 0.09^e fold | – | – | 0.45 ± 0.09 | – | – | – | – | – | – | – | – |
| CC1(C)CC[C@]2(CNC(=O)CF)CC[C@]3(C)[C@H](C(=O)C=C4[C@@]5(C)C=C(C#N)C(=O)C(C)(C)[C@@H]5CC[C@]43C)[C@@H]2C1 [Compound T67] | 0.3^e fold | – | 0.38 ± 0.15^d fold | – | – | – | – | – | – | – | – | – | 0.0033 | 0.51 ± 0.31 |
| COC(=O)[C@]12CCC(C)(C)C[C@H]1[C@H]1C(=O)C=C3[C@@]4(C)C=C(C#N)C(=O)C(C)(C)[C@@H]4CC[C@@]3(C)[C@]1(C)CC2 [RTA 402, reference compound] | 1.00 fold | 0.0118 ± 0.0029 | 1.00 ± 0.00 fold | – | – | 2.58 ± 1.19 | – | – | – | – | – | – | – | – |
